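Briefly, cells in 96-well plates were exposed to five compound concentrations for 48 h, and endpoints were estimated by linear interpolation. Here, GI50 denotes the concentration required for 50% inhibition of growth. TGI: concentration producing complete growth inhibition.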
Each compound was assayed on UACC-62 melanoma (assay: NCI-60 cell line screen, 48 h).
`CC(C)CSc1nc(Nc2ccccc2)c(C#N)c(-c2ccc(F)cc2)n1` showed a GI50 of 16.5 µM and a TGI of 43.5 µM.
`COC(=O)[C@]12CCC(C)(C)C[C@H]1C1=CC[C@@H]3[C@@]4(C)C/C(=C/c5cccnc5)C(=O)C(C)(C)[C@@H]4CC[C@@]3(C)[C@]1(C)CC2` showed a GI50 of 2.89 µM and a TGI of 12.8 µM.
Work on `C=CCN1C(=O)/C(=C/c2ccccc2)NC1=S` yielded a TGI of over 100 µM.

What follows are compounds tested on HS 578T breast (assay: NCI-60 cell line screen, 48 h).
`O=[N+]([O-])C(C(Cl)=C(Cl)Cl)=C(N1CCOCC1)N1CCOCC1` showed a TGI of over 100 µM.
With `O=[N+]([O-])c1ccccc1N=Nc1c(O)sc2ccccc12` the TGI was over 100 µM.
`CC(C)CSc1nc(Nc2ccccc2)c(C#N)c(-c2ccc(F)cc2)n1` showed a GI50 of 1.6 µM and a TGI of 11 µM.
Compound `COC(=O)[C@]12CCC(C)(C)C[C@H]1C1=CC[C@@H]3[C@@]4(C)C/C(=C/c5cccnc5)C(=O)C(C)(C)[C@@H]4CC[C@@]3(C)[C@]1(C)CC2` has a GI50 of 22.7 µM and a TGI of over 100 µM.
With `C=CCN1C(=O)/C(=C/c2ccccc2)NC1=S` the TGI was over 100 µM.

Each compound was assayed on LOX IMVI melanoma (assay: NCI-60 cell line screen, 48 h).
Work on `O=[N+]([O-])C(C(Cl)=C(Cl)Cl)=C(N1CCOCC1)N1CCOCC1` yielded a TGI of over 100 µM.
In the case of `O=[N+]([O-])c1ccccc1N=Nc1c(O)sc2ccccc12`, the TGI was over 100 µM.
`CC(C)CSc1nc(Nc2ccccc2)c(C#N)c(-c2ccc(F)cc2)n1` gave a GI50 of 2.98 µM and a TGI of 21.4 µM.
With `COC(=O)[C@]12CCC(C)(C)C[C@H]1C1=CC[C@@H]3[C@@]4(C)C/C(=C/c5cccnc5)C(=O)C(C)(C)[C@@H]4CC[C@@]3(C)[C@]1(C)CC2` the GI50 was 4.63 µM and the TGI was 17.8 µM.
Work on `C=CCN1C(=O)/C(=C/c2ccccc2)NC1=S` yielded a TGI of over 100 µM.

Each compound was assayed on TK-10 renal (assay: NCI-60 cell line screen, 48 h).
`O=[N+]([O-])C(C(Cl)=C(Cl)Cl)=C(N1CCOCC1)N1CCOCC1` gave a TGI of over 100 µM.
`O=[N+]([O-])c1ccccc1N=Nc1c(O)sc2ccccc12` gave a TGI of over 100 µM.
`CC(C)CSc1nc(Nc2ccccc2)c(C#N)c(-c2ccc(F)cc2)n1` was tested, and the GI50 was 1.61 µM and the TGI was 6.33 µM.
Compound `COC(=O)[C@]12CCC(C)(C)C[C@H]1C1=CC[C@@H]3[C@@]4(C)C/C(=C/c5cccnc5)C(=O)C(C)(C)[C@@H]4CC[C@@]3(C)[C@]1(C)CC2` has a GI50 of 21.4 µM and a TGI of 55.5 µM.
`C=CCN1C(=O)/C(=C/c2ccccc2)NC1=S` showed a TGI of over 100 µM.

The compounds below were run on NCI-H522 lung (assay: NCI-60 cell line screen, 48 h).
In the case of `O=[N+]([O-])C(C(Cl)=C(Cl)Cl)=C(N1CCOCC1)N1CCOCC1`, the TGI was over 100 µM.
Compound `O=[N+]([O-])c1ccccc1N=Nc1c(O)sc2ccccc12` has a TGI of over 100 µM.
For `CC(C)CSc1nc(Nc2ccccc2)c(C#N)c(-c2ccc(F)cc2)n1`, the GI50 was 14.4 µM and the TGI was 71.4 µM.
Compound `COC(=O)[C@]12CCC(C)(C)C[C@H]1C1=CC[C@@H]3[C@@]4(C)C/C(=C/c5cccnc5)C(=O)C(C)(C)[C@@H]4CC[C@@]3(C)[C@]1(C)CC2` has a GI50 of 8.58 µM and a TGI of 28.7 µM.
In the case of `C=CCN1C(=O)/C(=C/c2ccccc2)NC1=S`, the TGI was over 100 µM.

The compounds below were run on KM12 colon (assay: NCI-60 cell line screen, 48 h).
Compound `O=[N+]([O-])C(C(Cl)=C(Cl)Cl)=C(N1CCOCC1)N1CCOCC1` has a TGI of over 100 µM.
`O=[N+]([O-])c1ccccc1N=Nc1c(O)sc2ccccc12` showed a TGI of over 100 µM.
Work on `CC(C)CSc1nc(Nc2ccccc2)c(C#N)c(-c2ccc(F)cc2)n1` yielded a GI50 of 48.2 µM and a TGI of over 100 µM.
With `COC(=O)[C@]12CCC(C)(C)C[C@H]1C1=CC[C@@H]3[C@@]4(C)C/C(=C/c5cccnc5)C(=O)C(C)(C)[C@@H]4CC[C@@]3(C)[C@]1(C)CC2` the GI50 was 5.06 µM and the TGI was 19.9 µM.
`C=CCN1C(=O)/C(=C/c2ccccc2)NC1=S` gave a TGI of over 100 µM.

Each compound was assayed on A498 renal (assay: NCI-60 cell line screen, 48 h).
`O=[N+]([O-])C(C(Cl)=C(Cl)Cl)=C(N1CCOCC1)N1CCOCC1` was tested, and the TGI was over 100 µM.
Work on `O=[N+]([O-])c1ccccc1N=Nc1c(O)sc2ccccc12` yielded a TGI of over 100 µM.
Compound `CC(C)CSc1nc(Nc2ccccc2)c(C#N)c(-c2ccc(F)cc2)n1` has a GI50 of 1.19 µM and a TGI of 6.13 µM.
`COC(=O)[C@]12CCC(C)(C)C[C@H]1C1=CC[C@@H]3[C@@]4(C)C/C(=C/c5cccnc5)C(=O)C(C)(C)[C@@H]4CC[C@@]3(C)[C@]1(C)CC2` was tested, and the GI50 was 11.6 µM and the TGI was 26.4 µM.
With `C=CCN1C(=O)/C(=C/c2ccccc2)NC1=S` the TGI was over 100 µM.

Each compound was assayed on SF-295 CNS (assay: NCI-60 cell line screen, 48 h).
With `O=[N+]([O-])C(C(Cl)=C(Cl)Cl)=C(N1CCOCC1)N1CCOCC1` the TGI was over 100 µM.
`O=[N+]([O-])c1ccccc1N=Nc1c(O)sc2ccccc12` showed a TGI of over 100 µM.
With `CC(C)CSc1nc(Nc2ccccc2)c(C#N)c(-c2ccc(F)cc2)n1` the GI50 was 0.971 µM and the TGI was 11.4 µM.
`COC(=O)[C@]12CCC(C)(C)C[C@H]1C1=CC[C@@H]3[C@@]4(C)C/C(=C/c5cccnc5)C(=O)C(C)(C)[C@@H]4CC[C@@]3(C)[C@]1(C)CC2` showed a GI50 of 9.67 µM and a TGI of 40.4 µM.
`C=CCN1C(=O)/C(=C/c2ccccc2)NC1=S` showed a TGI of over 100 µM.

The compounds below were run on RXF 393 renal (assay: NCI-60 cell line screen, 48 h).
Work on `O=[N+]([O-])C(C(Cl)=C(Cl)Cl)=C(N1CCOCC1)N1CCOCC1` yielded a TGI of over 100 µM.
Work on `CC(C)CSc1nc(Nc2ccccc2)c(C#N)c(-c2ccc(F)cc2)n1` yielded a GI50 of 1.75 µM and a TGI of 6.18 µM.
For `COC(=O)[C@]12CCC(C)(C)C[C@H]1C1=CC[C@@H]3[C@@]4(C)C/C(=C/c5cccnc5)C(=O)C(C)(C)[C@@H]4CC[C@@]3(C)[C@]1(C)CC2`, the GI50 was 4.25 µM and the TGI was 17.5 µM.
In the case of `C=CCN1C(=O)/C(=C/c2ccccc2)NC1=S`, the TGI was over 100 µM.

The compounds below were run on EKVX NSCLC (assay: NCI-60 cell line screen, 48 h).
`O=[N+]([O-])C(C(Cl)=C(Cl)Cl)=C(N1CCOCC1)N1CCOCC1` was tested, and the TGI was over 100 µM.
`O=[N+]([O-])c1ccccc1N=Nc1c(O)sc2ccccc12` gave a TGI of over 100 µM.
In the case of `CC(C)CSc1nc(Nc2ccccc2)c(C#N)c(-c2ccc(F)cc2)n1`, the GI50 was 1.73 µM and the TGI was 16.5 µM.
`COC(=O)[C@]12CCC(C)(C)C[C@H]1C1=CC[C@@H]3[C@@]4(C)C/C(=C/c5cccnc5)C(=O)C(C)(C)[C@@H]4CC[C@@]3(C)[C@]1(C)CC2` was tested, and the GI50 was 10.9 µM and the TGI was 31.1 µM.
`C=CCN1C(=O)/C(=C/c2ccccc2)NC1=S` showed a TGI of over 100 µM.

What follows are compounds tested on OVCAR-8 ovarian (assay: NCI-60 cell line screen, 48 h).
In the case of `O=[N+]([O-])C(C(Cl)=C(Cl)Cl)=C(N1CCOCC1)N1CCOCC1`, the TGI was over 100 µM.
In the case of `O=[N+]([O-])c1ccccc1N=Nc1c(O)sc2ccccc12`, the TGI was over 100 µM.
With `CC(C)CSc1nc(Nc2ccccc2)c(C#N)c(-c2ccc(F)cc2)n1` the GI50 was 3.27 µM and the TGI was 16.1 µM.
`COC(=O)[C@]12CCC(C)(C)C[C@H]1C1=CC[C@@H]3[C@@]4(C)C/C(=C/c5cccnc5)C(=O)C(C)(C)[C@@H]4CC[C@@]3(C)[C@]1(C)CC2` gave a GI50 of 3.82 µM and a TGI of 60.8 µM.
Compound `C=CCN1C(=O)/C(=C/c2ccccc2)NC1=S` has a TGI of over 100 µM.

Each compound was assayed on OVCAR-4 ovarian (assay: NCI-60 cell line screen, 48 h).
With `O=[N+]([O-])C(C(Cl)=C(Cl)Cl)=C(N1CCOCC1)N1CCOCC1` the TGI was over 100 µM.
`O=[N+]([O-])c1ccccc1N=Nc1c(O)sc2ccccc12` gave a TGI of 98.4 µM.
Compound `CC(C)CSc1nc(Nc2ccccc2)c(C#N)c(-c2ccc(F)cc2)n1` has a GI50 of 0.335 µM and a TGI of 1.16 µM.
Compound `COC(=O)[C@]12CCC(C)(C)C[C@H]1C1=CC[C@@H]3[C@@]4(C)C/C(=C/c5cccnc5)C(=O)C(C)(C)[C@@H]4CC[C@@]3(C)[C@]1(C)CC2` has a GI50 of 11.3 µM and a TGI of over 100 µM.
For `C=CCN1C(=O)/C(=C/c2ccccc2)NC1=S`, the TGI was over 100 µM.

Each compound was assayed on SW-620 colon (assay: NCI-60 cell line screen, 48 h).
Work on `O=[N+]([O-])c1ccccc1N=Nc1c(O)sc2ccccc12` yielded a TGI of over 100 µM.
With `CC(C)CSc1nc(Nc2ccccc2)c(C#N)c(-c2ccc(F)cc2)n1` the GI50 was 8.63 µM and the TGI was over 100 µM.
In the case of `COC(=O)[C@]12CCC(C)(C)C[C@H]1C1=CC[C@@H]3[C@@]4(C)C/C(=C/c5cccnc5)C(=O)C(C)(C)[C@@H]4CC[C@@]3(C)[C@]1(C)CC2`, the GI50 was 5.74 µM and the TGI was 33.3 µM.
With `C=CCN1C(=O)/C(=C/c2ccccc2)NC1=S` the TGI was over 100 µM.

The compounds below were run on HT29 colon (assay: NCI-60 cell line screen, 48 h).
`O=[N+]([O-])C(C(Cl)=C(Cl)Cl)=C(N1CCOCC1)N1CCOCC1` showed a TGI of over 100 µM.
`O=[N+]([O-])c1ccccc1N=Nc1c(O)sc2ccccc12` showed a TGI of over 100 µM.
Compound `CC(C)CSc1nc(Nc2ccccc2)c(C#N)c(-c2ccc(F)cc2)n1` has a GI50 of 14.5 µM and a TGI of over 100 µM.
For `COC(=O)[C@]12CCC(C)(C)C[C@H]1C1=CC[C@@H]3[C@@]4(C)C/C(=C/c5cccnc5)C(=O)C(C)(C)[C@@H]4CC[C@@]3(C)[C@]1(C)CC2`, the GI50 was 5 µM and the TGI was 65.9 µM.
In the case of `C=CCN1C(=O)/C(=C/c2ccccc2)NC1=S`, the TGI was over 100 µM.

The compounds below were run on CAKI-1 renal (assay: NCI-60 cell line screen, 48 h).
`O=[N+]([O-])C(C(Cl)=C(Cl)Cl)=C(N1CCOCC1)N1CCOCC1` gave a TGI of over 100 µM.
With `O=[N+]([O-])c1ccccc1N=Nc1c(O)sc2ccccc12` the TGI was over 100 µM.
Work on `CC(C)CSc1nc(Nc2ccccc2)c(C#N)c(-c2ccc(F)cc2)n1` yielded a GI50 of 0.486 µM and a TGI of 2.46 µM.
`COC(=O)[C@]12CCC(C)(C)C[C@H]1C1=CC[C@@H]3[C@@]4(C)C/C(=C/c5cccnc5)C(=O)C(C)(C)[C@@H]4CC[C@@]3(C)[C@]1(C)CC2` was tested, and the GI50 was 6.87 µM and the TGI was 22.3 µM.
